Test results taken from US20230009608A1, “GRK2 INHIBITORS AND USES THEREOF” (Cygnal Therapeutics, Inc., priority 2020, published 2023).

Legend:
[1] = molecular target: T1, GRK2 (Homo sapiens, UniProt P25098); assay: ADPGlo GRK2 Inhibition Assay (Example 8); format: biochemical; details: Enzyme Assay A, ADPGlo (Example 8); read-out: A: Enzymatic GRK2: IC50 (nM) (Example 8)
T1 construct: purchased SignalChem A14-10G
T1 sequence (P25098 1-689): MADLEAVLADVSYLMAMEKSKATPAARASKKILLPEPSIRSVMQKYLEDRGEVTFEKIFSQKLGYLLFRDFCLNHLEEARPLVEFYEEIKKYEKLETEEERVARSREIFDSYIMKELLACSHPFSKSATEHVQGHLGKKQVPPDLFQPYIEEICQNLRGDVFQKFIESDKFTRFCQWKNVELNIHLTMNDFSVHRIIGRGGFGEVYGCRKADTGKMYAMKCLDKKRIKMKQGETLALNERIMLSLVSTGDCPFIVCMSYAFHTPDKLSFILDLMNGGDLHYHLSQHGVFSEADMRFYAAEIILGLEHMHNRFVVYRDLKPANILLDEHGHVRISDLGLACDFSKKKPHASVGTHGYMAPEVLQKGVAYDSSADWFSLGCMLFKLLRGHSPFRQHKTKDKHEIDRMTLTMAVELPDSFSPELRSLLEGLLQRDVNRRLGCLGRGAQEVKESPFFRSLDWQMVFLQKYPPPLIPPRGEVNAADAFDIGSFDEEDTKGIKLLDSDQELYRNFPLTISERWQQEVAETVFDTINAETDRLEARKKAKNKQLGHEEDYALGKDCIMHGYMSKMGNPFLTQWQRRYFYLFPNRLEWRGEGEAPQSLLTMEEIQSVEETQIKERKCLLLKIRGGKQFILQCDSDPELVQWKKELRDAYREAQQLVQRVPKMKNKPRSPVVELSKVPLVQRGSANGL
In short: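 GRK2 (15 nM 2× enzyme solution) was preincubated 15 min with compound, then reacted 180 min at room temperature with 2× mix of 20 μM ATP plus GRKtide in HEPES pH 7.5, MgCl2, Tween-20, DTT. ADP was detected by ADP-Glo luminescence. Percent inhibition was normalised to enzyme and no-enzyme controls, with dose-response curves from threefold dilutions starting at 100 μM.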

[2] = system: PAXF1657 control empty vector cell line; assay: 7-day proliferation assay, PAXF1657 control empty vector cell line (Example 9); format: cell-based; details: 168 h; Cell Line: PAXF1657 empty vector (EV) cell line; 7-day; read-out: C: 7-day proliferation assay: IC50 GeoMean
In short: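 500 cells/well, RPMI1640 + 10% H.I. FBS, adhered overnight at 37° C. Compound 10-pt dilution, 30 μM-0.0002 μM final, 0.3% DMSO. 3 d, media + compound replaced, further 4 d. Viability by CellTiter-Glo; untreated plates read at time of dosing.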

Row | Structure (SMILES) | IC50 [1] [nM] | IC50 [2] [nM]
1 | COc1cccc2c1OCC[C@H]2NC(=O)c1cccc(NCc2nnc(-c3ccncn3)n2C)c1 | 26.1 | 7740
2 | COc1cccc2c1OCC[C@@H]2NC(=O)c1cccc(NCc2nnc(-c3ccncn3)n2C)c1 | 87.5 | 470
3 | COc1ccc2c(c1)OCC[C@H]2NC(=O)c1cccc(NCc2nnc(-c3ccncn3)n2C)c1 | 60.9 | 485
4 | COc1ccc2c(c1)[C@H](NC(=O)c1cccc(NCc3nnc(-c4ccncn4)n3C)c1)CCO2 | 15.2 | > 30000
5 | Cn1c(CNc2cccc(C(=O)N[C@@H]3CCOc4ccc(C(F)(F)F)cc43)c2)nnc1-c1ccncn1 | 8.09 | 594
6 | Cn1c(CNc2cccc(C(=O)N[C@H]3CCOc4ccc(C(F)(F)F)cc43)c2)nnc1-c1ccncn1 | 834 | 28500
7 | CNS(=O)(=O)c1cccc(F)c1CNC(=O)c1cccc(NCc2nnc(-c3ccncc3)[nH]2)c1 | 5.38 | 3620
8 | O=C(N[C@@H]1COc2cc(F)ccc21)c1cccc(NCc2nnc(-c3ccncc3)[nH]2)c1 | 7.92 | 607
9 | O=C(N[C@H]1COc2cc(F)ccc21)c1cccc(NCc2nnc(-c3ccncc3)[nH]2)c1 | 27.9 | 4070
10 | Cn1c(CNc2cccc(C(=O)N[C@@H](CCO)c3ccccc3)c2)nnc1-c1ccncn1 | 65.9 | 13100
11 | Cn1c(CNc2cccc(C(=O)N[C@H](CCO)c3ccccc3)c2)nnc1-c1ccncn1 | 9.54 | 4190
12 | Cn1c(CNc2cccc(C(=O)N[C@@H]3COc4cc(F)ccc43)c2)nnc1-c1ccncn1 | 25.8 | 117
13 | Cn1c(CNc2cccc(C(=O)N[C@H]3COc4cc(F)ccc43)c2)nnc1-c1ccncn1 | 9.03 | > 30000
14 | CCCn1c(CNc2cccc(C(=O)NCc3c(F)cccc3S(=O)(=O)NC)c2)nnc1-c1ccncn1 | 22.2 | > 3200
15 | CCCn1c(CNc2cccc(C(=O)N[C@@H]3COc4cc(F)ccc43)c2)nnc1-c1ccncn1 | 3.35 | > 30000
16 | CCCn1c(CNc2cccc(C(=O)N[C@H]3COc4cc(F)ccc43)c2)nnc1-c1ccncn1 | 10.5 | > 30000
17 | CNS(=O)(=O)c1cccc(F)c1CNC(=O)c1cccc(NCc2nnc3n2CCOc2cnccc2-3)c1 | 85.3 | 2840
18 | O=C(N[C@@H]1COCc2ccccc21)c1cccc(NCc2nnc(-c3ccncn3)n2CCO)c1 | 1.47 | 592
19 | O=C(N[C@H]1COCc2ccccc21)c1cccc(NCc2nnc(-c3ccncn3)n2CCO)c1 | 38.1 | > 2110
20 | O=C(N[C@@H]1COc2cc(F)ccc21)c1cccc(NCc2nnc(-c3ccncn3)n2CCO)c1 | 22.4 | 25.4
21 | O=C(N[C@H]1COc2cc(F)ccc21)c1cccc(NCc2nnc(-c3ccncn3)n2CCO)c1 | 3.84 | 256
22 | O=C(N[C@@H]1COCc2ccccc21)c1cccc(NCc2nnc(-c3ccncc3)n2CCO)c1 | 9.28 | > 30000
23 | O=C(N[C@H]1COCc2ccccc21)c1cccc(NCc2nnc(-c3ccncc3)n2CCO)c1 | 10.9 | 41.6
24 | O=C(N[C@@H]1COCc2c(Cl)cccc21)c1cccc(NCc2nnc(-c3ccncc3)n2CCO)c1 | 9.91 | 24.2
25 | O=C(N[C@H]1COCc2c(Cl)cccc21)c1cccc(NCc2nnc(-c3ccncc3)n2CCO)c1 | 7.18 | > 30000
26 | O=C(N[C@@H]1COc2cc(F)ccc21)c1cccc(NCc2nnc(-c3ccncc3)n2CCO)c1 | 4.8 | 3130
27 | O=C(N[C@H]1COc2cc(F)ccc21)c1cccc(NCc2nnc(-c3ccncc3)n2CCO)c1 | 23.2 | > 30000
28 | Cn1c(CNc2cccc(C(=O)N[C@@H]3COCc4ccccc43)c2)nnc1-c1ccncc1F | 227 | > 30000
29 | Cn1c(CNc2cccc(C(=O)N[C@H]3COCc4ccccc43)c2)nnc1-c1ccncc1F | 32.5 | 61.5
30 | Cn1c(CNc2cccc(C(=O)N[C@@H]3COCc4c(Cl)cccc43)c2)nnc1-c1ccncc1F | 60.4 | > 30000
